pIC50: −log10 of the molar value.
Experiments:
[1] = target: DGKζ (Homo sapiens (Human), UniProt Q13574); assay: Biochemical DGK IC50 assay (ADP-Glo, lipid micelle substrate), DGKζ; details: full length DGKζ 0.5 nM, ATP 140 μM, DAG 80 μM
Summary of the method: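 Full-length human His-TEV-tagged DGKζ, expressed in Sf9 cells and purified, was run at room temperature on DAG/PS lipid micelles in 50 mM HEPES, 10 mM MgCl2, 0.01 mM CaCl2 buffer. After 1 h reaction, ADP formed was detected by ADP-Glo luminescence. IC50s came from inhibition across increasing compound concentrations.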

[2] = target: DGKα (Homo sapiens (Human), UniProt P23743); assay: Biochemical DGK IC50 assay (ADP-Glo, lipid micelle substrate), DGKα; details: full length DGKα […], ATP 140 μM, DAG 80 μM; further: full length DGKα 7.5 nM
Summary of the method: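 Full-length human DGKα assayed by ADP-Glo with DAG/PS lipid micelle substrate at room temperature in 50 mM HEPES, 10 mM MgCl2, 0.01% BSA, 0.1 mM Na3VO4, 0.005% Tween-20, 0.01 mM CaCl2.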

DGKζ, sequence (Q13574 other isoform, or with tags, fused parts or gaps): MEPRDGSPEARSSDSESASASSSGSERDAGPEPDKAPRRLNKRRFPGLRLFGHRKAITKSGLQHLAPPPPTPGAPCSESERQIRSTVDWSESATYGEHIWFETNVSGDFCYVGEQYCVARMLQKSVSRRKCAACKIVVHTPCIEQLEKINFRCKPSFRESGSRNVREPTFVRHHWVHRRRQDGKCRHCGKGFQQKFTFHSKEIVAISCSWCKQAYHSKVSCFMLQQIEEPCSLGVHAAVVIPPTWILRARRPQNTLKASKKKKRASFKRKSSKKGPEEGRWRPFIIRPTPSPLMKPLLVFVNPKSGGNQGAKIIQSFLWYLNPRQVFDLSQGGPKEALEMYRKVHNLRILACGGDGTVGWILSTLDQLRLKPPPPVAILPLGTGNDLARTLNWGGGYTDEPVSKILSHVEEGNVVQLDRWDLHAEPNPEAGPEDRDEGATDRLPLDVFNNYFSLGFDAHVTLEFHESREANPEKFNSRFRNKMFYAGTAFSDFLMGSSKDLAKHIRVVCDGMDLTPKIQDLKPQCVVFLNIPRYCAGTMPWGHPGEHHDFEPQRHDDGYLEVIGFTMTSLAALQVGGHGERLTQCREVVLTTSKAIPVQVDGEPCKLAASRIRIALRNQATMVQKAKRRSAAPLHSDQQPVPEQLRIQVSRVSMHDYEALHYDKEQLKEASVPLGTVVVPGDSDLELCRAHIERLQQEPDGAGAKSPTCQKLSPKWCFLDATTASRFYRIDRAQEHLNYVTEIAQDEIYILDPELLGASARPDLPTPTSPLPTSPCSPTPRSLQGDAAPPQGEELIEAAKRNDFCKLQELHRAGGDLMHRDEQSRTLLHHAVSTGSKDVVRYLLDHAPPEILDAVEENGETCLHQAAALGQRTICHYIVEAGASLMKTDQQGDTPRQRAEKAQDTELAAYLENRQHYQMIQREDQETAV
DGKα, sequence (P23743 whole entry): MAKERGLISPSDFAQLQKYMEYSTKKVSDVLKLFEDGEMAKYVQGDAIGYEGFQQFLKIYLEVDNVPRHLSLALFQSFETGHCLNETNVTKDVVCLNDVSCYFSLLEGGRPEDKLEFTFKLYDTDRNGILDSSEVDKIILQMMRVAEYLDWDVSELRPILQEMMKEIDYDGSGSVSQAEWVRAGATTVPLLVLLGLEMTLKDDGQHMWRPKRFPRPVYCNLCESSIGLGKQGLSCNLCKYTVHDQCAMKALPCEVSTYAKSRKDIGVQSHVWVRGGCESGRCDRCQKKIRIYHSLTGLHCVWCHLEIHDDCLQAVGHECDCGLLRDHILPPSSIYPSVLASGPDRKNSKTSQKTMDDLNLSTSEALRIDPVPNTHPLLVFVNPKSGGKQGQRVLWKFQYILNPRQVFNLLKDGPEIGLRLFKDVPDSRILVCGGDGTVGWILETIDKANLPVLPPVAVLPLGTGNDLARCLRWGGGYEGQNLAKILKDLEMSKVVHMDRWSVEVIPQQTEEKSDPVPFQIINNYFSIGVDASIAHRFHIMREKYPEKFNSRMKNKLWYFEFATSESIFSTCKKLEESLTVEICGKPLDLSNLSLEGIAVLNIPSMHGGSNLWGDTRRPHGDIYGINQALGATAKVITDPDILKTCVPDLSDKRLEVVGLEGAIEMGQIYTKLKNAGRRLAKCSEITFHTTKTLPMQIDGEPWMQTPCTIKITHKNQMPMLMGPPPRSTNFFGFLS

pIC50 [1] | pIC50 [2] | Structure (SMILES)
6.32 | 5.24 | CC[C@H]1CN(C(C)c2cnc3c(c2)CCO3)[C@H](CC)CN1c1cc(=O)n(C)c2cn(CC#N)nc12 (stereo partly drawn) [Compound A74, 2-(7-((2S,5R)-4-(1-(2,3-dihydrofuro[2,3-b]pyridin-5-yl)ethyl)-2,5-diethylpiperazin-1-yl)-4-methyl-5-oxo-4,5-dihydro-2H-pyrazolo[4,3-b]pyridin-2-yl)acetonitrile]
6.75 | 5.80 | CC[C@H]1CN(C(C)c2ccc3c(F)cnn3c2)[C@H](CC)CN1c1cc(=O)n(C)c2cn(CC#N)nc12 (stereo partly drawn) [Compound A76, 2-(7-((2S,5R)-2,5-diethyl-4-(1-(3-fluoropyrazolo[1,5-a]pyridin-6-yl)ethyl)piperazin-1-yl)-4-methyl-5-oxo-4,5-dihydro-2H-pyrazolo[4,3-b]pyridin-2-yl)acetonitrile]
5.73 | 4.60 | CC[C@H]1CN(C(C)c2cnc3c(c2)ncn3C)[C@H](CC)CN1c1cc(=O)n(C)c2cn(CC#N)nc12 (stereo partly drawn) [Compound A78, 2-(7-((2S,5R)-2,5-diethyl-4-(1-(3-methyl-3H-imidazo[4,5-b]pyridin-6-yl)ethyl)piperazin-1-yl)-4-methyl-5-oxo-4,5-dihydro-2H-pyrazolo[4,3-b]pyridin-2-yl)acetonitrile]
8.00 | 7.29 | CC[C@H]1CN(C(C)c2ccc3nscc3c2)[C@H](CC)CN1c1cc(=O)n(C)c2cn(CC#N)nc12 (stereo partly drawn) [Compound A88, 2-(7-((2S,5R)-4-(1-(benzo[c]isothiazol-5-yl)ethyl)-2,5-diethylpiperazin-1-yl)-4-methyl-5-oxo-4,5-dihydro-2H-pyrazolo[4,3-b]pyridin-2-yl)acetonitrile]
7.47 | 7.55 | CC[C@H]1CN(C(C)c2ccc3ccsc3c2)[C@H](CC)CN1c1cc(=O)n(C)c2cn(CC#N)nc12 (stereo partly drawn) [Compound A89, 2-(7-((2S,5R)-4-(1-(benzo[b]thiophen-6-yl)ethyl)-2,5-diethylpiperazin-1-yl)-4-methyl-5-oxo-4,5-dihydro-2H-pyrazolo[4,3-b]pyridin-2-yl)acetonitrile]
7.00 | 6.31 | CC(c1ccc2ncsc2c1)N1C[C@H](C)N(c2cc(=O)n(C)c3cn(CC#N)nc23)C[C@H]1C (stereo partly drawn) [Compound A93, 2-(7-((2S,5R)-4-(1-(benzo[d]thiazol-6-yl)ethyl)-2,5-dimethylpiperazin-1-yl)-4-methyl-5-oxo-4,5-dihydro-2H-pyrazolo[4,3-b]pyridin-2-yl)acetonitrile]
6.01 | 5.73 | CC[C@H]1CN(C(C)c2ccc3ncsc3c2)[C@H](CC)CN1c1c(Br)c(=O)n(C)c2cn(CC#N)nc12 (stereo partly shown) [Compound A94]
7.19 | 7.28 | CC[C@H]1CN(C(C)c2ccc3ncsc3c2)[C@H](CC)CN1c1c(C#N)c(=O)n(C)c2cn(CC#N)nc12 (stereo partly drawn) [Compound A95, 7-((2S,5R)-4-(1-(benzo[d]thiazol-6-yl)ethyl)-2,5-diethylpiperazin-1-yl)-2-(cyanomethyl)-4-methyl-5-oxo-4,5-dihydro-2H-pyrazolo[4,3-b]pyridine-6-carbonitrile]
6.59 | 6.30 | CC[C@H]1CN(C(C)c2cc3scnc3cn2)[C@H](CC)CN1c1cc(=O)n(C)c2cn(CC#N)nc12 (stereo partly drawn) [Compound A97, 2-(7-((2S,5R)-2,5-diethyl-4-(1-(thiazolo[4,5-c]pyridin-6-yl)ethyl)piperazin-1-yl)-4-methyl-5-oxo-4,5-dihydro-2H-pyrazolo[4,3-b]pyridin-2-yl)acetonitrile]
6.80 | 7.24 | CC[C@H]1CN(C(C)c2ccc3ocnc3c2)[C@H](CC)CN1c1cc(=O)n(C)c2cn(CC#N)nc12 (stereo partly shown) [Compound A105]
7.96 | 5.58 | CC[C@H]1CN(C(C)c2ccc3sc(C)nc3c2)[C@H](CC)CN1c1cc(=O)n(C)c2cn(CC#N)nc12 (stereo partly drawn) [Compound A108, 2-(7-((2S,5R)-2,5-diethyl-4-(1-(2-methylbenzo[d]thiazol-5-yl)ethyl)piperazin-1-yl)-4-methyl-5-oxo-4,5-dihydro-2H-pyrazolo[4,3-b]pyridin-2-yl)acetonitrile]
7.74 | 5.61 | CCc1nc2cc(C(C)N3C[C@H](CC)N(c4cc(=O)n(C)c5cn(CC#N)nc45)C[C@H]3CC)ccc2s1 (stereo partly drawn) [Compound A109, 2-(7-((2S,5R)-2,5-diethyl-4-(1-(2-ethylbenzo[d]thiazol-5-yl)ethyl)piperazin-1-yl)-4-methyl-5-oxo-4,5-dihydro-2H-pyrazolo[4,3-b]pyridin-2-y)acetonitrile]
6.63 | 7.70 | CC#CCn1cc2c(n1)c(N1C[C@@H](CC)N(C(C)c3ccc4ncsc4n3)C[C@@H]1C)cc(=O)n2C (stereo partly drawn) [Compound A118, 2-(but-2-yn-1-yl)-7-((2S,5R)-5-ethyl-2-methyl-4-(1-(thiazolo[5,4-b]pyridin-5-yl)ethyl)piperazin-1-yl)-4-methyl-2,4-dihydro-5H-pyrazolo[4,3-b]pyridin-5-one]
6.07 | 6.71 | CC#CCn1cc2c(n1)c(N1C[C@@H](CC)N(C(C)c3ccc4scnc4c3)C[C@@H]1C)cc(=O)n2C (stereo partly drawn) [Compound A119, 7-((2S,5R)-4-(1-(benzo[d]thiazol-5-yl)ethyl)-5-ethyl-2-methylpiperazin-1-yl)-2-(but-2-yn-1-yl)-4-methyl-2,4-dihydro-5H-pyrazolo[4,3-b]pyridin-5-one]
5.83 | 5.51 | CC[C@H]1CN(C(C)c2ccc(C3CC3)nc2)[C@H](CC)CN1c1cc(=O)n(C)c2cn(C3COC3)nc12 (stereo partly drawn) [Compound A121, 7-((2S,5R)-4-(1-(6-cyclopropylpyridin-3-yl)ethyl)-2,5-diethylpiperazin-1-yl)-4-methyl-2-(oxetan-3-yl)-2,4-dihydro-5H-pyrazolo[4,3-b]pyridin-5-one]
< 5.00 | 4.77 | CC[C@H]1CN(C(C)c2ccc(C3CC3)nc2)[C@H](CC)CN1c1cc(=O)n(C)c2cn(CC3COC3)nc12 (stereo partly drawn) [Compound A122, 7-((2S,5R)-4-(1-(6-cyclopropylpyridin-3-yl)ethyl)-2,5-diethylpiperazin-1-yl)-4-methyl-2-(oxetan-3-ylmethyl)-2,4-dihydro-5H-pyrazolo[4,3-b]pyridin-5-one]
7.96 | 6.95 | CC[C@H]1CN(C(C)c2ccc3ncsc3c2)[C@H](CC)CN1c1nc(=O)n(C)c2cn(CC#N)nc12 (stereo partly drawn) [Compound A123, 2-(7-((2S,5R)-4-(1-(benzo[d]thiazol-6-yl)ethyl)-2,5-diethylpiperazin-1-yl)-4-methyl-5-oxo-4,5-dihydro-2H-pyrazolo[4,3-d]pyrimidin-2-yl)acetonitrile]
7.41 | 6.36 | CC[C@H]1CN(C(C)c2ccc3nc(C)sc3c2)[C@H](CC)CN1c1nc(=O)n(C)c2cn(CC#N)nc12 (stereo partly shown) [Compound A124]
7.34 | 6.67 | CC[C@@H]1CN(c2cc(=O)n(C)c3cn(CC#N)nc23)[C@@H](C)CN1C(C)c1ccc2ccsc2n1 (stereo partly shown) [Compound A130]
7.59 | 6.61 | CC[C@@H]1CN(c2cc(=O)n(C)c3cn(CC#N)nc23)[C@@H](C)CN1C(C)c1ccc2cc(C)sc2n1 (stereo partly drawn) [Compound A131, 2-(7-((2S,5R)-5-ethyl-2-methyl-4-(1-(2-methylthieno[2,3-b]pyridin-6-yl)ethyl)piperazin-1-yl)-4-methyl-5-oxo-4,5-dihydro-2H-pyrazolo[4,3-b]pyridin-2-yl)acetonitrile]
6.86 | 7.20 | CC[C@@H]1CN(c2cc(=O)n(C)c3cn(CC#N)nc23)[C@@H](C)CN1C(C)c1ccc2cc(F)sc2n1 (stereo partly drawn) [Compound A132, 2-(7-((2S,5R)-5-ethyl-4-(1-(2-fluorothieno[2,3-b]pyridin-6-yl)ethyl)-2-methylpiperazin-1-yl)-4-methyl-5-oxo-4,5-dihydro-2H-pyrazolo[4,3-b]pyridin-2-yl)acetonitrile]
6.93 | 7.89 | CC#CCn1cc2c(n1)c(N1C[C@@H](CC)N(C(C)c3ccc4nc(C)sc4n3)C[C@@H]1CC)cc(=O)n2C (stereo partly shown) [Compound A137]
7.13 | 6.42 | Cc1cc2nc(C(C)N3C[C@H](C)N(c4cc(=O)n(C)c5cn(CC#N)nc45)C[C@H]3C)ccc2s1 (stereo partly drawn) [Compound A155, 2-(7-((2S,5R)-2,5-dimethyl-4-(1-(2-methylthieno[3,2-b]pyridin-5-yl)ethyl)piperazin-1-yl)-4-methyl-5-oxo-4,5-dihydro-2H-pyrazolo[4,3-b]pyridin-2-yl)acetonitrile]
7.10 | 7.49 | CC[C@H]1CN(C(C)c2ccn3nc(Cl)cc3n2)[C@H](CC)CN1c1cc(=O)n(C)c2cn(CC#N)nc12 (stereo partly drawn) [Compound A175, 2-(7-((2S,5R)-4-(1-(2-chloropyrazolo[1,5-a]pyrimidin-5-yl)ethyl)-2,5-diethylpiperazin-1-yl)-4-methyl-5-oxo-4,5-dihydro-2H-pyrazolo[4,3-b]pyridin-2-yl)acetonitrile]
5.93 | 5.61 | CC[C@H]1CN(C(C)c2cn3ncccc3n2)[C@H](CC)CN1c1cc(=O)n(C)c2cn(CC#N)nc12 (stereo partly drawn) [Compound A180, 2-(7-((2S,5R)-2,5-diethyl-4-(1-(imidazo[1,2-b]pyridazin-2-yl)ethyl)piperazin-1-yl)-4-methyl-5-oxo-4,5-dihydro-2H-pyrazolo[4,3-b]pyridin-2-yl)acetonitrile]
6.75 | 6.33 | CC[C@H]1CN(C(C)c2nc3cccnc3s2)[C@H](CC)CN1c1cc(=O)n(C)c2cn(CC#N)nc12 (stereo partly drawn) [Compound A181, 2-(7-((2S,5R)-2,5-diethyl-4-(1-(thiazolo[5,4-b]pyridin-2-yl)ethyl)piperazin-1-yl)-4-methyl-5-oxo-4,5-dihydro-2H-pyrazolo[4,3-b]pyridin-2-yl)acetonitrile]

Source: patent publication US20250346597A1, “CONDENSED HETEROCYCLIC COMPOUNDS AS INHIBITOR OF DIACYLGLYCEROL KINASES” (BEONE MEDICINES I GMBH, priority 2023, published 2025)
